According to ChEMBL document CHEMBL1145609, “Design and synthesis of tacrine-ferulic acid hybrids as multi-potent anti-Alzheimer drug candidates” (Bioorg Med Chem Lett, 2008):

Assays:
[1] = target: Acetylcholinesterase (Electrophorus electricus, UniProt O42275)
Description: Inhibition of electric eel AchE by Ellman's assay

[2] = target: Butyrylcholinesterase (Equus caballus, UniProt Q9N1N9)
Chain of Butyrylcholinesterase (Q9N1N9 whole entry): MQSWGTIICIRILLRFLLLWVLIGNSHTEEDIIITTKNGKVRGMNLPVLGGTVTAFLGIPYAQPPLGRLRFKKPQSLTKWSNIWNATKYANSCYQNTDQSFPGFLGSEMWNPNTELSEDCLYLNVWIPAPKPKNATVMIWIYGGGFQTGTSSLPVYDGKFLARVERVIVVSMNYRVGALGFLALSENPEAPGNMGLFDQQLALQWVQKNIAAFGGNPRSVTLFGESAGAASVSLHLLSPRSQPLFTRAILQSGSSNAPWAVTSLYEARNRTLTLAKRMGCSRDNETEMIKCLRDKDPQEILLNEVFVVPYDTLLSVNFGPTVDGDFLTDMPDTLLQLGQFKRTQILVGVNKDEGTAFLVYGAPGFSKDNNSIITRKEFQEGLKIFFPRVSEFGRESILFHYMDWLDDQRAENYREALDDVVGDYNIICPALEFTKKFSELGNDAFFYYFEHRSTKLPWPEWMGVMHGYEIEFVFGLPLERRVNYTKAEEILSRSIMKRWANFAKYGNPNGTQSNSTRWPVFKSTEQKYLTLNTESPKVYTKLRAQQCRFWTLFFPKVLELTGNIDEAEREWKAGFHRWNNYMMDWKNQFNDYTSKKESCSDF
Description: Inhibition of equine BChE by Ellman's assay

Chain of Acetylcholinesterase (O42275 whole entry): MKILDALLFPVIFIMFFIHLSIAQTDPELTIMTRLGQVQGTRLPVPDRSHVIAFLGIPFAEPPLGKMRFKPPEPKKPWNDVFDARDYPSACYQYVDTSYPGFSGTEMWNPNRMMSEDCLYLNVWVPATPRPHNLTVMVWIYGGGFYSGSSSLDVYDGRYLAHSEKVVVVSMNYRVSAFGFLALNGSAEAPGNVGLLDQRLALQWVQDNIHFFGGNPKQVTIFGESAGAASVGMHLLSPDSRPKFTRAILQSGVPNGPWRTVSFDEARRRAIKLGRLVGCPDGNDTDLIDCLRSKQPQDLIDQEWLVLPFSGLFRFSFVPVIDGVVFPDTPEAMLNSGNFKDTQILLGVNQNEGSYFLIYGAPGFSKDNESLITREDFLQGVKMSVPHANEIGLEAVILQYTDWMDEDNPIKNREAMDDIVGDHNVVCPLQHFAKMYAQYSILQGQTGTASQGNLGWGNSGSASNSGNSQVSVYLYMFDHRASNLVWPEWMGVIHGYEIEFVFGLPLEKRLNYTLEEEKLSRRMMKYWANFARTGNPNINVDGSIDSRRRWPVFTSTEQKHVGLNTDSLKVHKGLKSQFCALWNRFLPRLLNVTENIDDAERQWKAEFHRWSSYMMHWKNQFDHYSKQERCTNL

Row | Compound | IC50 [1] [nM] | IC50 [2] [nM]
1 | COc1cc(/C=C/C(=O)NCCCCCCCCNc2c3c(nc4ccccc24)CCCC3)ccc1O | 9.6 | 12.7
2 | NCCCCCNc1c2c(nc3ccccc13)CCCC2 | 3.2 | 5
3 | NCCCCCCCCNc1c2c(nc3ccccc13)CCCC2 | 3.5 | 1.4
4 | NCCNc1c2c(nc3ccccc13)CCCC2 | 54.8 | 12.3
5 | NCCCCNc1c2c(nc3ccccc13)CCCC2 | 23.6 | 7.1
6 | COc1cc(/C=C/C(=O)NCCCNc2c3c(nc4ccccc24)CCCC3)ccc1O | 33 | 27
7 | COc1cc(/C=C/C(=O)NCCCCNc2c3c(nc4ccccc24)CCCC3)ccc1O | 7.6 | 5.9
8 | NCCCNc1c2c(nc3ccccc13)CCCC2 | 69.5 | 5.5
9 | COc1cc(/C=C/C(=O)NCCCCCNc2c3c(nc4ccccc24)CCCC3)ccc1O | 4.4 | 6.7
10 | COc1cc(/C=C/C(=O)NCCNc2c3c(nc4ccccc24)CCCC3)ccc1O | 38.6 | 34.1
